Experimental data from patent US20090203661A1, “Betulinic acid, derivatives and analogs thereof and uses therefor” (priority 2006, published 2009).

Test system: Panc-28 cells
Experiment: Cell proliferation assay, Panc-28 cells
Type: cell-based
Conditions: Homo sapiens, read-out: IC50 values, inhibition of growth
Description: SW480, HT-29 and HCT-15 human colon cancer cells were provided by Dr. Stan Hamilton (M. D. Anderson Cancer Center (Houston, Tex.). Panc-28 human pancreatic cancer cells and 3T3-L1 pre-adipocytes were obtained from American Type Culture Collection (Manassas, Va.). SW480, HT-29 and Panc-28 cells were maintained in Dulbecco's modified/Ham's F-12 (Sigma-Aldrich, St Louis, Mo.) with phenol red supplemented with 0.22% sodium bicarbonate, 0.011% sodium pyruvate, 5% fetal bovine serum, and 10 mL/L 100× antibiotic antimycotic solution (Sigma). HCT-15 cells were maintained in RPMI 1640 (Sigma) supplemented with 0.22% sodium bicarbonate, 0.011% sodium pyruvate, 0.45% glucose, 0.24% HEPES, 10% fetal bovine serum, and 10 mL/L of 100× antibiotic antimycotic solution (Sigma). Cells were maintained at 37° C. in the presence of 5% CO2.
This assay is performed in 12-well tissue culture plates at the concentration of 2×10^4 cells per well, using DMEM/Ham's F-12 media containing 2.5% charcoal stripped FBS. The cells were counted on the initial day using a Z1 cell counter (Beckman Coulter, Fullerton, Calif.) and then were treated either with vehicle (DMSO) or the indicated triterpenoid compounds, each sample in triplicate. Every 48 hr, fresh medium was added along with the indicated compounds. […] The results are expressed as means±S.E for each set of triplicate.

- IC50: 1000 to 5000 nM
SMILES: C=C(C)[C@@H]1CC[C@]2(C(=O)O)CC[C@]3(C)[C@H](CC[C@@H]4[C@@]5(C)CC[C@H](O)C(C)(C)[C@@H]5CC[C@]43C)[C@@H]12 [betulinic acid, Betulinic acid]
